Data set [1] deals with S6RP serine-240/244 phosphorylation. The experiment in a line: In vitro phospho-S6 cellular assay. The following applies: Homo sapiens; HEK293T/17 cells, 2 hours; read-out: pS6 inhibition value (IC50), activity level. Format: cell-based. The essentials:
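HEK293T/17 cells (40,000/well for pS6RP, 80,000/well for pAkt) in DMEM, 2% FCS treated 2 h at 37 °C with 8 compound concentrations (0.1% DMSO). Lysates assayed by MesoScale sandwich electrochemiluminescence for pS6RP Ser240/244 or pAkt Ser473. Curves fitted by sigmoidal variable-slope regression.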

The subject of data set [2] is Akt serine-473 phosphorylation. The experiment in a line: In vitro phospho-Akt cellular assay. Type of data set: cell-based. The note with it: Homo sapiens; HEK293T/17 cells, 2 hours; read-out: pAkt inhibition value (IC50), activity level. The text has this: Activation of mTOR signaling results in phosphorylation of several downstream targets. In cells, mTOR exists in two different protein complexes. The mTOR Complex-1 (mTORC1) phosphorylates and activates S6 Kinase 1 (S6K1) and S6 Kinase 2 (S6K2) (also known as p70S6K) which then phosphorylate S6 Ribosomal Protein (S6RP) (also known as RPS6)3. S6RP is phosphorylated on serine 235, serine 236, serine 240 and serine 244 by both pS6K1 and pS6K2. The mTOR Complex-2 (mTORC2) phosphorylates AKT on serine 473 which activates the AKT signaling pathway.
The assay measures a test compound's inhibition of S6RP serine-240/244 phosphorylation and inhibition of Akt serine-473 phosphorylation in human embryonic kidney derived HEK293T/17 cells (ATCC CRL-11268).
The HEK293T/17 cell line is maintained in DMEM media (Invitrogen catalogue number 41965-039) supplemented with 10% FCS at 37° C. in a 5% CO2 humidified incubator.
Cells are seeded in 96-well plates at 40,000 cells/well (pS6RP S240/244 assay) or 80,000 cells/well (pAkt S473 assay) in 90 μl growth media (DMEM, 2% FCS). Plates are incubated for 1 hour in a humidified incubator to allow the cells to adhere. Cells are treated with 8 concentrations of test compounds or DMSO alone for controls (final DMSO concentration 0.1%) and incubated at 37° C. for 2 hours. Then 20 μl of 5× concentrated lysis buffer (750 mM NaCl, 100 mM Tris pH7.4, 5 mM ADTA, 5 mM EGTA, 5% Triton X-100) is added, plates are sealed and incubated for 15 minutes at 4° C. with gentle shaking. After cell lysis, 25 μl cell lysate is transferred to a MesoScale plate coated with an antibody to pS6RP Ser240/244 (MesoScale Discovery K150DGD-3) or an antibody to pAkt Ser 473 (MesoScale Discovery K151DGD-3). Plates have been blocked before by incubation with 150 μl MesoScale Discovery Blocking Solution-A for 1 hour at room temperature followed by washing with 150 μl 1× Tris wash buffer per well. After the transfer of the cell lysate to the MSD plate, the pS6RP (or pAkt) protein is captured on the coated antibody by incubation at room temperature for 1 hour with gentle shaking. After the capture step the plate is washed three times with 150 μl of 1× Tris wash buffer per well. Then 25 μl detection antibody conjugated with a Sulfo-Tag is added and incubated for 1 hour at room temperature with gentle shaking. Subsequently the antibody solution is removed and the plate is washed 3 times with 150 μl 1× Tris wash buffer per well and 150 μl Read buffer is added. The plates are analysed on a MSD 2400 Plate Reader (MesoScale Discovery). Data analysis is performed using nonlinear regression for a sigmoidal dose-response with a variable slope.

Data set [3] concerns the target mTOR (Homo sapiens, UniProt P42345). Put plainly: biochemical.
Data set [4] addresses DNA-dependent protein kinase (DNA-PK) (Homo sapiens, UniProt P78527). The experiment in a line: biochemical.
The nature of data set [5]: Bi-directional Caco-2 permeability assay. Format: in vitro ADME. The note with it: human, pH 7.4, Caco-2, 10 uM, pH7.4, read-out: Efflux ratio (ER), Papp B>A/Papp A>B. The protocol: Bi-directional Caco-2 assays to assess the permeability of compounds in the gi tract, were performed as described below.
2×10^5 cells/well were seeded in plating medium consisting of DMEM+GlutaMAXI+1% NEAA+10% FBS (FetalClone II)+1% Pen/Strep. The medium was changed every 2-3 days.
50 uM Lucifer Yellow (Sigma) was added to the donor buffer in all wells to assess integrity of the cell layers by monitoring Lucifer Yellow permeation. As Lucifer Yellow (LY) cannot freely permeate lipophilic barriers, a high degree of LY transport indicates poor integrity of the cell layer. After a 1 hr incubation at 37° C. while shaking at an orbital shaker at 150 rpm, 70 ul aliquots were taken from both apical (A) and basal (B) chambers and added to 100 ul 50:50 acetonitrile:water solution containing analytical internal standard (0.5 uM carbamazepine) in a 96 well plate.
Concentrations of compound in the samples were measured by high performance liquid-chromatography/mass spectroscopy (LC-MS/MS).
The Efflux ratio, as an indication of active efflux from the apical cell surface of Caco-2 cells, was calculated using the ratio of Papp B>A/Papp A>B.

Data set [6] has as its system IFNγ release in whole blood. Put plainly: In vitro human whole blood assay (IFNγ release). Type of data set: cell-based. The following applies: αCD3/αCD28 and IL-2 stimulation, 18 hours, read-out: WB inhibition value (pIC50) (converted). The essentials:
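Na-heparin human whole blood, diluted 1.4-fold in RPMI, was preincubated 1 h at 37° C with 10 compound concentrations (0.2% DMSO), then stimulated with 1 μg/ml αCD3, 1 μg/ml αCD28 and 10 ng/ml IL-2 for 18 h. Plasma IFNγ quantified by MesoScale electrochemiluminescence immunoassay; values from variable-slope sigmoidal dose-response fit.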

This note sets out measurements from patent US9242993B2, “Morpholino substituted bicyclic pyrimidine urea or carbamate derivatives as mTOR inhibitors” (CELLZOME LIMITED, priority 2011, dated 2016).

Sequence of DNA-dependent protein kinase (DNA-PK) (P78527 whole entry): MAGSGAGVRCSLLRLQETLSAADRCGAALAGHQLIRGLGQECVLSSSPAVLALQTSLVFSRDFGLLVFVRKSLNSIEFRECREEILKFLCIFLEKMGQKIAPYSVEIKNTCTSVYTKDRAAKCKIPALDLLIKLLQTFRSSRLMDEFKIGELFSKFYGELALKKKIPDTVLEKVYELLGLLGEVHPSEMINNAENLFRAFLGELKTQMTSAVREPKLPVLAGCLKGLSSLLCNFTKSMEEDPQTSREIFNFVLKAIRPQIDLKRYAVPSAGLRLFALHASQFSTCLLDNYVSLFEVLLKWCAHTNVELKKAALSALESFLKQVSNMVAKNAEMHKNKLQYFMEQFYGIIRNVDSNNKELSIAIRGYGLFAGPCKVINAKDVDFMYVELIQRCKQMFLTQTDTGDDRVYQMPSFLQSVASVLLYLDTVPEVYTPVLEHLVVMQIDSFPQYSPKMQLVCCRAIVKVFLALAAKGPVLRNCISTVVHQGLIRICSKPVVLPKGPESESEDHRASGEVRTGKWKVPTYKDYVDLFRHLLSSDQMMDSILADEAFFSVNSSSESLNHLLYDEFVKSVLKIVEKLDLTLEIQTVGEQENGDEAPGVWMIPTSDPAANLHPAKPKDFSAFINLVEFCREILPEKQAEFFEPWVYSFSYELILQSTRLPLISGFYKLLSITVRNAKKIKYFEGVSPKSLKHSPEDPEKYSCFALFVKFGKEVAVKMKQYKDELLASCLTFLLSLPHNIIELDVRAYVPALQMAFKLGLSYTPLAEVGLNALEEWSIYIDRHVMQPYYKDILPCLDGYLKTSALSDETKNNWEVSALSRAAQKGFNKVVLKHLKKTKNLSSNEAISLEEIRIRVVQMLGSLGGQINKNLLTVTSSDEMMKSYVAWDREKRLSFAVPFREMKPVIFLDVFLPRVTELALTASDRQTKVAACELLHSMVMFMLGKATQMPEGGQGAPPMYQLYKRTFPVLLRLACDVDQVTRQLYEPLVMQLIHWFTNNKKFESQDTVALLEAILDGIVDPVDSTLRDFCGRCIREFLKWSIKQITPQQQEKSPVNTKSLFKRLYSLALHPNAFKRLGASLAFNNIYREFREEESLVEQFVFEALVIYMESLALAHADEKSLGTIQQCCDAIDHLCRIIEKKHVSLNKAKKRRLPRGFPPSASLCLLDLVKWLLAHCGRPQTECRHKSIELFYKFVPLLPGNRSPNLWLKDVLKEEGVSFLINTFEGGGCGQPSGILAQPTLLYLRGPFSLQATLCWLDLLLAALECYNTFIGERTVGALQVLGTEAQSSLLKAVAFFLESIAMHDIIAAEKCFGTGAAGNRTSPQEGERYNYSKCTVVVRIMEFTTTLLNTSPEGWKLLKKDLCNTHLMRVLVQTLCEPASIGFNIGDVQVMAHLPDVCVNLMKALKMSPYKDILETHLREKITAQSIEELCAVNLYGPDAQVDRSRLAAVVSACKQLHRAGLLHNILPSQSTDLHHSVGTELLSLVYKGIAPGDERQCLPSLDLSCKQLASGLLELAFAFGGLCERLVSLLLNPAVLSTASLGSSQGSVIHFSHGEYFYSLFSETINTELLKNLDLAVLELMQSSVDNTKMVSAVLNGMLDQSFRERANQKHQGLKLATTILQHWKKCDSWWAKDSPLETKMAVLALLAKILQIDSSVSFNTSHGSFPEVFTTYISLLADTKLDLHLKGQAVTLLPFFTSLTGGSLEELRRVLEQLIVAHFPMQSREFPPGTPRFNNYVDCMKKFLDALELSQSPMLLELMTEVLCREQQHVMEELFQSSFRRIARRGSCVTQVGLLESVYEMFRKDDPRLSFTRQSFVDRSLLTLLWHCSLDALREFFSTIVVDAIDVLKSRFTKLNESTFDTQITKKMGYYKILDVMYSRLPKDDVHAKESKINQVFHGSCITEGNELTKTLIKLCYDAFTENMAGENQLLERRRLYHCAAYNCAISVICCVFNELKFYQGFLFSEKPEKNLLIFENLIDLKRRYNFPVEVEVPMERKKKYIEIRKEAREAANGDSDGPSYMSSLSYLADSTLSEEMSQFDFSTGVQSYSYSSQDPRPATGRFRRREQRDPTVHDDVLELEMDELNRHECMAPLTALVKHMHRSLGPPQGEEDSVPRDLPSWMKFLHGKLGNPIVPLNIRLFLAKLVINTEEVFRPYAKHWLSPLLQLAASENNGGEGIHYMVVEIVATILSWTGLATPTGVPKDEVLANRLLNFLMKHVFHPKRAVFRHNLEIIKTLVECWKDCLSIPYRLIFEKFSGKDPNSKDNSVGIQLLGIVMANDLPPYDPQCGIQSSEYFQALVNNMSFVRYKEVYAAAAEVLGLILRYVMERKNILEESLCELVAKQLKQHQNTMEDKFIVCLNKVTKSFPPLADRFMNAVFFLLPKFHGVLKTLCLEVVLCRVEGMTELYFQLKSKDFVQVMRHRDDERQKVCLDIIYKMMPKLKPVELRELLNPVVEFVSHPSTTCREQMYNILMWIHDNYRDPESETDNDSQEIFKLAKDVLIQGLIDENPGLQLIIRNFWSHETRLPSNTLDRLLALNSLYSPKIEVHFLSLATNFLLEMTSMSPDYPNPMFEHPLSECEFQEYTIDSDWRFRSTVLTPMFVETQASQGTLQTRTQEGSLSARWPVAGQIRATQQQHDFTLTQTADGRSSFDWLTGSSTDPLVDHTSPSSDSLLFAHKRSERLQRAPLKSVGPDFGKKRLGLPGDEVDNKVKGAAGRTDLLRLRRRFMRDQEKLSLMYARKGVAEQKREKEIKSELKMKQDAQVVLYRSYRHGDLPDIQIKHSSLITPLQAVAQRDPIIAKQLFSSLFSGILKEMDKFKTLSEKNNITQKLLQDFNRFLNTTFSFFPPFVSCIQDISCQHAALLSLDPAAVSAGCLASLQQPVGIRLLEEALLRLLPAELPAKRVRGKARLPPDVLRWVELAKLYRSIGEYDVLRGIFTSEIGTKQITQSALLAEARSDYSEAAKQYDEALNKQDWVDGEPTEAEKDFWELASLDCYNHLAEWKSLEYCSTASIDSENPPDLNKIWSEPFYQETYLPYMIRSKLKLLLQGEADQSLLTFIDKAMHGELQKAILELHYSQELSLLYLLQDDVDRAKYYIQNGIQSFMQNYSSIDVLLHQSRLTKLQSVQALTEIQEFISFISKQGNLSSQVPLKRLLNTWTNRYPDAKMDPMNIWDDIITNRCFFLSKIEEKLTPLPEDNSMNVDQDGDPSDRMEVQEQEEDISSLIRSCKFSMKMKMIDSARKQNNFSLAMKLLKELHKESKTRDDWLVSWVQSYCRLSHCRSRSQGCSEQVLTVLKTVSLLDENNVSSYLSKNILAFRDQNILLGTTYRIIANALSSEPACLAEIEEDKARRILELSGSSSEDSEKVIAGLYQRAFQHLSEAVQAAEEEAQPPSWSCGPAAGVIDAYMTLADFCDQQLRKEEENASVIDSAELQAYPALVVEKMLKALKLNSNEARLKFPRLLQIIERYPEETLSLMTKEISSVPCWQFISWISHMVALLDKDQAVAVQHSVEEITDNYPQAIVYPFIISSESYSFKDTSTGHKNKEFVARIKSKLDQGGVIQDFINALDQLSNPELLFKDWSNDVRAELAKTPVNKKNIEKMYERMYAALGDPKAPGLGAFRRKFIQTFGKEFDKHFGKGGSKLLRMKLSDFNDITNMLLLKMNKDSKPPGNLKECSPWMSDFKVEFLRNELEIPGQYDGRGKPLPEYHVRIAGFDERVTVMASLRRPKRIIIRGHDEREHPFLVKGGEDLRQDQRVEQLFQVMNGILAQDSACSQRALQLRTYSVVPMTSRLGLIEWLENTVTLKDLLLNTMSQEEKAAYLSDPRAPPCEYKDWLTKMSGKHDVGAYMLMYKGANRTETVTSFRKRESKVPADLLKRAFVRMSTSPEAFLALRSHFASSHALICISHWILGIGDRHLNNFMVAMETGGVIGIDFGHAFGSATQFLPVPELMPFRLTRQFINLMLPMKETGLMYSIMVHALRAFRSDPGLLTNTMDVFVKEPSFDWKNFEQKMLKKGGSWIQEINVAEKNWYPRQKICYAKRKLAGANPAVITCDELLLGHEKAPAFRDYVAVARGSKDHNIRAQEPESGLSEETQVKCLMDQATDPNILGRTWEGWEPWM

Take `C[C@H]1COCCN1c1nc(-c2ccc(NC(=O)NC3CC3)cc2)nc2c1CSC2` [Example 1, (S)-1-cyclopropyl-3-(4-(4-(3-methylmorpholino)-5,7-dihydrothieno[3,4-d]pyrimidin-2-yl)phenyl)urea]: the IC50 in data set [1] was below 100 nM; in data set [2], below 100 nM; in data set [3], below 100 nM; in data set [4], above 10000 nM.
On to `CCC1COCCN1c1nc(-c2ccc(NC(=O)NC3CC3)cc2)nc2c1CS(=O)(=O)C2` (centres unmarked) [Example 27, 1-cyclopropyl-3-(4-(4-(3-ethylmorpholino)-6,6-dioxido-5,7-dihydrothieno[3,4-d]pyrimidin-2-yl)phenyl)urea], for which the IC50 in data set [1] was below 100 nM; in data set [3], below 100 nM; in data set [4], above 10000 nM. Further, the efflux ratio at 1 h, 10 uM in data set [5] turned out to be 25.
In the case of `C[C@H]1COCCN1c1nc(-c2ccc(NC(=O)NC3CC3)cc2)nc2c1[C@H](C)S(=O)(=O)C2` (single isomer, unassigned) [Example 10], the IC50 in data set [1], in data set [2] and in data set [3] was below 100 nM throughout.
With `CCNC(=O)Nc1ccc(-c2nc(N3CCOC[C@@H]3C)c3c(n2)C(C)(C)S(=O)(=O)C3)cc1` [Example 62, (S)-1-(4-(7,7-dimethyl-4-(3-methylmorpholino)-6,6-dioxido-5,7-dihydrothieno[3,4-d]pyrimidin-2-yl)phenyl)-3-ethylurea], the IC50 in data set [1] is below 100 nM; in data set [6], 200 nM; in data set [4], above 10000 nM. Further, the efflux ratio at 1 h, 10 uM in data set [5] was found to be 22.
In the case of `C[C@@H]1c2c(nc(-c3ccc(NC(=O)NC4CC4)cc3)nc2N2CCOC[C@@H]2C)CS1(=O)=O` (single isomer, unassigned) [Example 9], the IC50 in data set [1], in data set [2] and in data set [3] was below 100 nM in each case.
On to `C[C@H]1COCCN1c1nc(-c2ccc(NC(=O)NC3CC3)cc2)nc2c1S(=O)(=O)CC2` [Example 5, (S)-1-cyclopropyl-3-(4-(4-(3-methylmorpholino)-5,5-dioxido-6,7-dihydrothieno[3,2-d]pyrimidin-2-yl)phenyl)urea], for which the IC50 in data set [1] was below 100 nM; in data set [2], below 100 nM; in data set [3], below 100 nM; in data set [4] it was above 10000 nM.
In the case of `CCNC(=O)Nc1ccc(-c2nc(N3C4CCC3COC4)c3c(n2)C(C)(C)S(=O)(=O)C3)cc1` [Example 60, 1-(4-(4-(3-oxa-8-azabicyclo[3.2.1]octan-8-yl)-7,7-dimethyl-6,6-dioxido-5,7-dihydrothieno[3,4-d]pyrimidin-2-yl)phenyl)-3-ethylurea], the IC50 was below 100 nM in data set [1], 200 nM in data set [6], below 100 nM in data set [3] and above 10000 nM in data set [4].
For `CCNC(=O)Nc1ccc(-c2nc3c(c(N4CCOC[C@@H]4CC)n2)CS(=O)(=O)C3C)cc1` (stereo partly drawn) [Example 41, 1-ethyl-3-(4-(4-((S)-3-ethylmorpholino)-7-methyl-6,6-dioxido-5,7-dihydrothieno[3,4-d]pyrimidin-2-yl)phenyl)urea], the IC50 in data set [1] is below 100 nM; in data set [6], 251 nM; in data set [3], below 100 nM; in data set [4], above 10000 nM.
Regarding `CC1Cc2nc(-c3ccc(NC(=O)NC4CC4)cc3)nc(N3CCOC[C@@H]3C)c2C(C)S1(=O)=O` (stereo partly drawn) [Example 72, 1-cyclopropyl-3-(4-(5,7-dimethyl-4-((S)-3-methylmorpholino)-6,6-dioxido-7,8-dihydro-5H-thiopyrano[4,3-d]pyrimidin-2-yl)phenyl)urea], the IC50 was below 100 nM in data set [1], 398 nM in data set [6], below 100 nM in data set [3] and above 10000 nM in data set [4].
For the compound `C[C@H]1COCCN1c1nc(-c2ccc(NC(=O)NC3CC3)cc2)nc2c1CS(=O)(=O)C2` [Example 2, (S)-1-cyclopropyl-3-(4-(4-(3-methylmorpholino)-6,6-dioxido-5,7-dihydrothieno[3,4-d]pyrimidin-2-yl)phenyl)urea], the IC50 in data set [1], in data set [2] and in data set [3] was below 100 nM in each case.
Take `C[C@H]1COCCN1c1nc(-c2ccc(NC(=O)NC3CC3)cc2)nc2c1CS(=O)(=O)C2(C)F` (stereo partly drawn) [Example 43, 1-cyclopropyl-3-(4-(7-fluoro-7-methyl-4-((S)-3-methylmorpholino)-6,6-dioxido-5,7-dihydrothieno[3,4-d]pyrimidin-2-yl)phenyl)urea]: the IC50 in data set [1] was below 100 nM; in data set [6], 1000 nM; in data set [3], below 100 nM; in data set [4], above 10000 nM.
